Measurements reported in patent publication US20130011378A1, “Stable formulations of a hyaluronan-degrading enzyme” (priority 2011, published 2013).
Counter-ions that a name gives are not always drawn. Residues, ends and D or L forms follow the SMILES beside them.

Assays:
[1] = molecular target: T1, rHuPH20 (Homo sapiens, UniProt P38567); assay: Determination of hyaluronidase activity of rHuPH20, turbidimetric assay (Example 2, variant not specified); format: biochemical; settings: for Effect on rHuPH20 enzymatic activity: stabilizer screening in rHuPH20/insulin formulation, semi-quantitative in comparison with NaCl, samples incubated at 30° C. for about one week
T1 construct: made in house; host or cells: CHO cells (DG44 CHO, HZ24 plasmid, clone 2B2)
T1 sequence (P38567 36-482): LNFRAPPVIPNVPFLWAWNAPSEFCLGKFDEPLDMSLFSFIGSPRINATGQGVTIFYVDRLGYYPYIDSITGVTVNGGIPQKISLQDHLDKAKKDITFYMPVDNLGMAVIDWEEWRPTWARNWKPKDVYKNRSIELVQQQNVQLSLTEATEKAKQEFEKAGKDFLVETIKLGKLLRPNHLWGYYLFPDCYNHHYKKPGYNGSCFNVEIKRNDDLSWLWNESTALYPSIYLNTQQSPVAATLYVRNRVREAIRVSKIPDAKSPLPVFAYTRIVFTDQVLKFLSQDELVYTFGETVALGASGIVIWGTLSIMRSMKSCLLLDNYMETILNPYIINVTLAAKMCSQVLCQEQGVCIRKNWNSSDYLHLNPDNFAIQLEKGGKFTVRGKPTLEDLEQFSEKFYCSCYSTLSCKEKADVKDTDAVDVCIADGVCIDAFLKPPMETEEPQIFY

[2] = Non-denaturing SEC: percent main peak / aggregates of insulin and rHuPH20; format: physicochemical
Method: Reference samples were stored in HPLC vials at 10° C. prior to use.
Samples were stored in HPLC vials at 10° C. prior to use, for up to 3 days.
0.5× Phosphate Buffered Saline (PBS) solution was prepared by diluting 10×PBS with HPLC grade water.
Insulin percent purity was expressed as percentage of the insulin main peak versus the total insulin peaks. The target specification is less than 2% high molecular weight protein, i.e., insulin aggregates.
SEC was performed using the following conditions: 1× Phosphate Buffered Saline (PBS), a Toso BioScience G2000 SWXL column, and a flow rate set at 1 mL/min. Data were collected as described above and means were reported and entered into the design table following the sample sequence provided by the DOE software.

[3] = RP-HPLC: insulin apparent solubility / percent recovery; settings: stabilizer screening in rHuPH20/insulin formulation, semi-quantitative in comparison with NaCl; RP-HPLC, samples stored at 5° C.
Method: Apparent solubility was measured as the percent insulin recovery as compared to the initial formulations/conditions.
Samples were prepared by withdrawing 100 μL from each vial at every time point and centrifuging prior to loading. Samples were stored in an autosampler at 4° C. prior to use, and were considered stable for 3 days after preparation. All samples were tested in duplicate.
For insulin, 20 μL was injected for each HPLC run.
To determine the apparent solubility, the peak area of insulin/insulin analog main peak and desamido peak were integrated and combined together to calculate the percentage relative to the standards. […] The data were processed using Design-Expert® 7.0 (StatEase) and the “historical data” feature. Insulin percent purity was expressed as the percent of main insulin versus all insulin species.

[4] = t = 0, 100 μg/mL rHuPH20, pH 7.3, 140 mM NaCl, 0.01% polysorbate 80, preservative levels of Table 21, in U/mL
[5] = 48 hours, 4° C., preservative levels of Table 22, in U/mL
[6] = 48 hours, 35° C., preservative levels of Table 22, in U/mL
[7] = 35° C., Table 22 concentrations

Row | rHuPH20 activity ([1]; 24 hours, 25° C., in U/mL) | rHuPH20 activity ([1]; 5 days, 25° C., in U/mL) | rHuPH20 activity [1, 4] | % Main rHuPH20 peak by non-denaturing SEC ([2]; 4° C., 1 day) [%] | % Main rHuPH20 peak by non-denaturing SEC ([2]; 35° C., 1 day) | SMILES | Effect on rHuPH20 enzymatic activity [1] | further results
1 | 3500 | 1440 | 11,350 | 97.89 | <LOD | OCCCCCl [4-Chloro-1-butanol] | – | rHuPH20 activity ([1]; 6 days, 35° C.): <LOQ
2 | – | – | – | – | – | C[N+](C)(C)CC(=O)O [Betaine] | No effect | Effect on insulin solubility [3]: No effect
3 | 9520 | 12310 | 9,590 | 98.35 | 98.23% | N=C(NCCCCCCNC(=N)NC(=N)Nc1ccc(Cl)cc1)NC(=N)Nc1ccc(Cl)cc1.O=C(O)[C@H](O)[C@@H](O)[C@H](O)[C@H](O)CO.O=C(O)[C@H](O)[C@@H](O)[C@H](O)[C@H](O)CO [Chlorhexidine digluconate] | – | rHuPH20 activity [1, 5]: 12,090; rHuPH20 activity [1, 6]: 13,110; rHuPH20 activity ([1]; 6 days, 35° C., in U/mL): 12270; % Main rHuPH20 peak by non-denaturing SEC ([2]; 4° C., Table 22 concentrations): 99.77%; % Main rHuPH20 peak by non-denaturing SEC [2, 7]: 98.30%
4 | 8130 | 8750 | 7,720 | 98.76 | 98.12% | [H]/N=C(\N/C(=N/[H])NCCCCCCNC(=N)NC(=N)Nc1ccc(Cl)cc1)Nc1ccc(Cl)cc1 [Chlorhexidine dihydrochloride] | – | rHuPH20 activity ([1]; 6 days, 35° C., in U/mL): 11890
5 | – | – | – | – | – | NC(=O)CC[C@H](N)C(=O)O [Glutamine] | No effect | Effect on insulin solubility [3]: No effect
6 | – | – | – | – | – | NCC(=O)NCC(=O)O [Gly-Gly] (H-Gly-Gly-OH) | No effect | –
7 | – | – | – | – | – | O[C@H]1[C@H](O)[C@@H](O)[C@H](O)[C@@H](O)[C@H]1O [Inositol] | No effect | –
8 | 12100 | 11460 | 13,420 | 98.27 | 98.86% | N[C@@H](Cc1ccccc1)C(=O)O [L-Phenylalanine] | – | rHuPH20 activity [1, 5]: 12,540; rHuPH20 activity [1, 6]: 13,130; rHuPH20 activity ([1]; 6 days, 35° C., in U/mL): 10660; % Main rHuPH20 peak by non-denaturing SEC ([2]; 4° C., Table 22 concentrations): 100.00%; % Main rHuPH20 peak by non-denaturing SEC [2, 7]: 99.80%
9 | – | – | – | – | – | NCCCC[C@H](N)C(=O)O [Lysine] | No effect | Effect on insulin solubility [3]: No effect
10 | – | – | – | – | – | OC[C@@H](O)[C@@H](O)[C@H](O)[C@H](O)CO [Mannitol] | No effect | –
11 | – | – | – | – | – | O=C(O)CCCc1ccccc1 [Phenyl butyric acid] | No effect | –
12 | – | – | – | – | – | O=C([O-])c1ccccc1.[Na+] [Sodium Benzoate] | No effect | –
